These results are taken from patent publication US8252909B2, “Synthetic C-glycolipid and its use for treating cancer, infectious diseases, and autoimmune diseases” (New York University, priority 2002, dated 2012).

For data set [1], the system named is P. yoelii sporozoites. The data set can be described thus: malaria liver stage development in mice challenged with P. yoelii sporozoites, real-time RT-PCR of 18S rRNA in liver. It counts as in vivo. Particulars: for suppression of P. yoelii liver stages in deficient mice: mice deficient in CD1d, Jα18, IFN-γ or IFN-γ receptor; for suppression of P. yoelii liver stages in deficient mice / malaria liver stage development: 2 μg intraperitoneally two days before challenge; for malaria liver stage development: compared to untreated control; for dose of equal anti-malaria activity (dose response): intraperitoneally three days before challenge. The method, then:
(§1) P. yoelii (17NXL strain) was maintained by alternate cyclic passages in Anopheles stephensi mosquitoes and Swiss Webster mice. Sporozoites obtained from dissected salivary glands of infected mosquitoes 2 weeks after their infective blood were used for challenge of the mice. Challenge of mice to determine the development of liver-stage malaria infection was performed by an intravenous injection of 10,000 viable sporozoites into the tail vein. The outcome of the challenge was determined 40-42 hours later by measuring the parasite burden in the livers of the mice using a quantitative real-time RT-PCR method, as taught in Bruna-Romero et al., Int. J. Parasitol. 31, 1449-1502, 2001. Challenge of mice toe determine the development of blood stage malaria infection was performed by an intravenous injection of 75 viable sporozoites into the tail vein. Starting four days after challenge, daily peripheral blood smears were obtained from each mouse and examined microscopically for the presence of blood stage parasites until day 17 post-challenge. Mice were considered positive for parasitemia if at least one blood stage parasite was observed during the time of examination.
The degree of liver stage development in challenged mice was determined by quantifying the amount of P. yoelii-specific 18S rRNA molecules in the livers of the mice by way of the real-time RT-PCR technique of Bruna-Romero et al. A 2 μg sample of total RNA prepared from the livers of challenged mice was reverse-transcribed, and an aliquot of the resulting cDNA (133 ng) was used for real-time PCR amplification of P. yoelii 18S rRNA sequences. This amplification was performed in a GeneAmp® 5700 Sequence Detection System (PE Applied Biosystems, Foster City, Calif.). For this purpose, primers 5′-[…]-3′ (SEQ. ID NO: 1) (54 nM) and 5′-[…]-3′ (SEQ. ID NO: 2) (60 nm) were used, together with the dsDNA-specific dye SYBR Green I incorporated into the PCR reaction buffer (PE Biosystems, Foster City, Calif.) in order to detect the PCR product generated. The temperature profile of the reaction was 95° C. for 10 minutes followed by 35 cycles of denaturation of 95° C. for 15 seconds and annealing/extension at 60° C. for 1 minute.

Data set [2] has as its system P. yoelii sporozoites. The data set can be described thus: sporozoite-induced blood stage malaria infection, daily blood smears. Format: in vivo. Particulars: wild type BALB/c mice, 100 ng intraperitoneally three days before challenge. How it is done: as §1
The subject of a further data set is B16 melanoma cells. The data set can be described thus: melanoma lung metastases, count of metastatic nodules. It counts as in vivo, C57/BL6 mice. Particulars: for dose of equal anti-cancer response (lung metastatic nodules): C57BL/6 mice, intravenously two days before challenge with 5×10^4 B16 cells, lungs checked two weeks later. How it is done:
The development of melanoma lung metastases in C57/BL6 mice was determined by first challenging mice intravenously with 5×10^4 syngeneic B16 melanoma cells suspended in DMEM supplemented with 10% FCS. Two weeks after challenge the mice were sacrificed, the lungs removed, and the number of metastatic nodules counted, as described in Fujii et al., Natl. Immunol. 3, 867-874 (2002).

The subject of another data set is IL-4. Description: serum IL-4 after treatment, sandwich ELISA. Conditions: wild type BALB/c mice, 1 μg intravenously. Format: in vivo. The method, then:
(§2) The serum concentrations of IFN-γ and IL-4 were measured 2, 6, 12, 24, 48, and 72 hours after treatment with α-GalCer, α-C-GalCer, or nothing by way of a sandwich ELISA (e-bioscience, San Diego). The serum concentrations of IL-12p70 were also measured at 2, 6, 12, 24, 48 and 72 hours after treatment by way of a sandwich ELISA (Pharmingen, San Diego).
On the technique in general: ELISA stands for enzyme-linked immunosorbent assay.

Another data set concerns IFN-γ. Description: serum IFN-γ after treatment, sandwich ELISA. Format: in vivo. Conditions: wild type BALB/c mice, 1 μg intravenously. The method, then:
as §2

A further data set concerns IL-12p70. Description: serum IL-12 after treatment, sandwich ELISA. Format: in vivo. Particulars: wild type BALB/c mice, 1 μg intravenously. The method, then: as §2
Data set [3] has as its system P. yoelii sporozoites. Conditions: mice, administered two days before challenge with Plasmodium sporozoites (Gonzalez-Aseguinolaza 2000); cited from earlier work.
For data set [4] the following is noted: recent human trials (Shimosaka et al.); cited from earlier work.
The conditions of data set [5]: independently of dosage (Nakagawa et al., 1998); cited from earlier work.
The test system of a further data set is liver enzyme activities. Conditions: mice, immediately after treatment (Osman et al., 2000); cited from earlier work.
Setting [6] is: 100 ng intraperitoneally four days before challenge.

Several values for one entry are separate records, joined by “and”; a condition that tells them apart may be missing. Equal values may be shown once.

Consider `CCCCCCCCCCCCCCCCCCCCCCCCCC(=O)N[C@@H](CC[C@H]1O[C@H](CO)[C@H](O)[C@H](O)[C@H]1O)[C@H](O)[C@H](O)CCCCCCCCCCCCCC` [α-C-GalCer, 3′S,4′S,5′R-3′-N-hexacosanoyl-4′,5′-dihydroxynonadecyl-α-C-D-galactopyranoside], for which, in the data set with P. yoelii sporozoites [1] (setting [6]), the “anti-malaria activity in IL-12 deficient mice” value was “no difference in anti-malaria activity”. Moreover, the “potency against malaria relative to α-GalCer” value in the data set with P. yoelii sporozoites [1] (malaria disease model, mice) stood at 1000 fold. Besides, the “suppression of P. yoelii liver stages in deficient mice” value in the data set with P. yoelii sporozoites [1] is “unable to suppress”. Moreover, in the data set on P. yoelii sporozoites [1] (wild type BALB/c mice, 100 ng intraperitoneally at various times before challenge), the “extension of anti-malaria effect (kinetic effect)” value is “up to three days longer than α-GalCer”. In the data set on P. yoelii sporozoites [1] (wild type BALB/c mice), the “malaria liver stage development” value is “virtually no liver stage development” and the “dose of equal anti-malaria activity (dose response)” value is listed as 1 ng. The “suppression of liver stage development, wild type mice” value in the data set on P. yoelii sporozoites [1] (wild type mice, 100 ng intraperitoneally four days before challenge) is on record as “suppressed liver stage development to a much greater degree than α-GalCer”. For the same compound, the “mice completely protected from blood stage malaria” value in the data set with P. yoelii sporozoites [2] is listed as 9 of 10. Also, in the data set on B16 melanoma cells, the “dose of equal anti-cancer response (lung metastatic nodules)” value is listed as 1 ng. In addition, the “potency against melanoma metastases relative to α-GalCer” value in the data set with B16 melanoma cells (melanoma metastases model, mice) was found to be 100 fold. For the same compound, the “time of peak serum IL-4 concentration after treatment” value in the data set with IL-4 came to 2 h. For the same compound, the “time at which detectable serum IFN-γ levels start” value in the data set on IFN-γ is 6 h. In addition, in the data set on IL-12p70, the “time of peak serum IL-12 concentration after treatment” value turned out to be 6 h and the “serum IL-12 levels 12 hours after treatment” value is “detectable”. The “peak serum IL-12 concentration relative to α-GalCer” value in the data set with IL-12p70 (6 hours) came to 2 times.
As for `CCCCCCCCCCCCCCCCCCCCCCCCCC(=O)N[C@@H](CO[C@H]1O[C@H](CO)[C@H](O)[C@H](O)[C@H]1O)[C@H](O)[C@H](O)CCCCCCCCCCCCCC` [α-GalCer, (2S,3S,4R)-1-O-(α-D-galactopyranosyl)-2-(N-hexacosanoylamino)-1,3,4-octadecanetriol], the “anti-malaria activity in IL-12 deficient mice” value with P. yoelii sporozoites [1] (setting [6]) was “no difference in anti-malaria activity”. For the same compound, in the data set on P. yoelii sporozoites [1], the “suppression of P. yoelii liver stages in deficient mice” value is listed as “unable to suppress”. In the data set with P. yoelii sporozoites [1] (wild type BALB/c mice), the “malaria liver stage development” value is on record as “virtually no liver stage development” and the “dose of equal anti-malaria activity (dose response)” value turned out to be 1000 ng. The “mice completely protected from blood stage malaria” value in the data set on P. yoelii sporozoites [2] is given as 0 of 10. Moreover, the “dose of equal anti-cancer response (lung metastatic nodules)” value in the data set on B16 melanoma cells was determined as 100 ng. Moreover, the “time of peak serum IL-4 concentration after treatment” value with IL-4 was found to be 2 h. The “peak serum IL-4 concentration relative to α-C-GalCer” value with IL-4 (2 hours) is given as “roughly 3 times”. For the same compound, in the data set on IFN-γ, the “time at which detectable serum IFN-γ levels start” value was 6 h; the “time of peak serum IFN-γ post-treatment” value is 12 h and 24 h. In addition, in the data set with IL-12p70, the “time of peak serum IL-12 concentration after treatment” value came out at 6 h and the “serum IL-12 levels 12 hours after treatment” value is listed as “undetectable”. Besides, the “development of malaria liver stages” value in the data set on P. yoelii sporozoites [3] is “suppressed development of malaria liver stages”. The cytotoxicity in humans result in [4] was “not cytotoxic”. Further, in data set [5], the “toxicity in rodents and monkeys” value is “does not induce toxicity”. The “liver enzyme activities after treatment” value with liver enzyme activities was “transient elevation of liver enzyme activities”.
